Results: US20090105349A1, “ANDROGEN MODULATORS” (WARNER-LAMBERT COMPANY LLC, priority 2004, published 2009)
Numbering of substitutions follows the chain as printed.

Target: T1, androgen receptor in MDA-MB453-MMTV clone 54-19 cells (Homo sapiens, UniProt P10275)
T1 sequence (P10275 1-920 Q868H): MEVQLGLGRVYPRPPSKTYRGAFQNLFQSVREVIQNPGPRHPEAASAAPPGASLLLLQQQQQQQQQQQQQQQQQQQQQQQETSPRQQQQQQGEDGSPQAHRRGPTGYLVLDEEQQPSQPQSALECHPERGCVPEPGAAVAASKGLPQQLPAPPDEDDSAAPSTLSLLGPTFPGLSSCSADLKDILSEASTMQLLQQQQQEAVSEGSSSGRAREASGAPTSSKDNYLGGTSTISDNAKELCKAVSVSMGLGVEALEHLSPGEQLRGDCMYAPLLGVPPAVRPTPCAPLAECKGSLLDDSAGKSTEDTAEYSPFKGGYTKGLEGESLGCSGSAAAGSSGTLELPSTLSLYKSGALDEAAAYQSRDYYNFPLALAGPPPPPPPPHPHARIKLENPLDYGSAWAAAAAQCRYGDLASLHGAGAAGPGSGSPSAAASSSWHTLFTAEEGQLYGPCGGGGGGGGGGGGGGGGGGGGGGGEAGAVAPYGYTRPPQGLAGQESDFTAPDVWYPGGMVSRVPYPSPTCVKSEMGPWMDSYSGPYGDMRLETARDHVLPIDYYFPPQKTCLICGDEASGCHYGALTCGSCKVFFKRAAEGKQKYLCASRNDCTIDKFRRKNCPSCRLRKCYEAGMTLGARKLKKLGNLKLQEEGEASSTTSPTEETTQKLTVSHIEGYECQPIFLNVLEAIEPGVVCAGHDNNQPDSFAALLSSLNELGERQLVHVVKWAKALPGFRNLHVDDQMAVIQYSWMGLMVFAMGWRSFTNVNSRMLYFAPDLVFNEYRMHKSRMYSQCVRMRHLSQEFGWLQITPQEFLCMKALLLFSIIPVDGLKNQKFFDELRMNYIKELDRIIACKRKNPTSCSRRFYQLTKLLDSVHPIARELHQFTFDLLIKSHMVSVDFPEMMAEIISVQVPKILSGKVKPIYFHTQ
Experiment: AR antagonist cell assay (MMTV-luciferase reporter)
Assay type: cell-based
Details: MDA-MB453-MMTV clone 54-19, inhibition of DHT induced luciferase, 17 hr; mean of multiple tests; read-out: AR Cell IC50
Procedure: The compounds ability to antagonize the effects of androgen on the androgen receptor were determined in a whole cell assay as described immediately below.
This cell line is a stable transfected cell line with MDA-MB453 cell background (a human breast tumor cell line expressing androgen receptor). A MMTV minimal promoter containing ARE was first cloned in front of a firefly luciferase reporter gene. Then the cascade was cloned into transfection vector pUV120puro. […] Puromycin resistant stable cell line was selected.
Plating medium: DMEM (phenol red free), 10% charcoal treated HyClone serum, 1% L-glutamine
Assay medium: DMEM (phenol red free), 1% charcoal treated HyClone serum, 1% L-glutamine, and 1% penicillin/streptomycin
Assay procedure: • 1. Cells are maintained in culture medium, splitting cells when they reach 80-90% confluence • 2. To test compounds, 10,000 cells/well are plated to opaque 96 cell culture plate in 100 ul/well plating medium, culture for overnight at 37° C. in cell culture incubator • 3. […] Add 10 ul/well freshly prepared DHT (final concentration at […]) to each well, incubate at 37° C. for 17 hr (overnight) • 5.
The results are reported as the mean of multiple tests as described below (the numbers of tests are indicated in the footnote). N.D. denotes that the compound was not tested.

Compound	IC50 [nM]
CSc1ccc(Oc2ccc(C#N)c(Cl)c2)c(C)c1 [Example 59, 2-Chloro-4-(2-methyl-4-methylsulfanyl-phenoxy)-benzonitrile]	175

Same assay, conditions: read-out: AR Cell IC50; MDA-MB453-MMTV clone 54-19, inhibition of DHT induced luciferase, 17 hr; mean of multiple tests

Compound	IC50 [nM]
COc1ccc(C)cc1Oc1ccc(C#N)c(Cl)c1 [Example 33, 2-Chloro-4-(2-methoxy-5-methyl-phenoxy)-benzonitrile]	42
Cc1cc(F)ccc1Oc1ccc(C#N)c(Cl)c1 [Example 60, 2-Chloro-4-(4-fluoro-2-methyl-phenoxy)-benzonitrile]	72
COc1cc(F)ccc1Oc1ccc(C#N)c(Cl)c1 [Example 56, 2-Chloro-4-(4-fluoro-2-methoxy-phenoxy)-benzonitrile]	11

Target: T2, hAR (human androgen receptor) (Homo sapiens, UniProt P10275)
T2 construct: made in house; host or cells: baculovirus/Sf9 insect cells (crude extract)
T2 sequence (P10275 1-920): T1 sequence (P10275 1-920 Q868H) with H868Q
Experiment: Competitive hAR binding assay with 3H-DHT tracer
Details: not given
Procedure: The description below describes how the assay was carried out.
Competitive binding analysis was performed on baculovirus/Sf9 generated hAR extracts in the presence or absence of different concentrations of test agent and a fixed concentration of ^3H-dihydrotestosterone (3H-DHT) as tracer. […] Subsequently, the binding reactions are washed three times to completely remove excess unbound ^3H-DHT. hAR bound ^3H-DHT levels are determined in the presence of compounds (i.e. competitive binding) and compared to levels bound when no competitor is present (i.e. maximum binding). Compound binding affinity to the hAR is expressed as the concentration of compound at which one half of the maximum binding is inhibited.

Compound	IC50 [nM]
Cc1cc(F)ccc1Oc1ccc(C#N)c(Cl)c1 [Example 60, 2-Chloro-4-(4-fluoro-2-methyl-phenoxy)-benzonitrile]	48
COc1cc(F)ccc1Oc1ccc(C#N)c(Cl)c1 [Example 56, 2-Chloro-4-(4-fluoro-2-methoxy-phenoxy)-benzonitrile]	6
CCOc1ccccc1Oc1ccc(C#N)c(Cl)c1 [Example 70, 2-Chloro-4-(2-ethoxy-phenoxy)-benzonitrile]	19
Cc1ccc(F)c(Oc2ccc(C#N)cc2Cl)c1F [Example 6, 3-Chloro-(2,6-difluro-5-methyl-phenoxy)benzonitrile]	59
CC(N)c1cc(F)ccc1Oc1ccc(C#N)c(C(F)(F)F)c1 (centres unmarked) [Example 122, 4-[2-(1-aminoethyl)-4-fluoro-phenoxy]-2-trifluoromethyl-benzonitrile]	2

Same assay, conditions: baculovirus/Sf9 hAR extract, 1 nM 3H-DHT, one hour at 4° C; mean of multiple tests; read-out: AR Binding IC50

Compound	IC50 [nM]
N#Cc1ccc(Oc2ccc3c(c2)CCC3)cc1Cl [Example 43, 2-Chloro-4-(indan-5-yloxy)-benzonitrile]	439
COc1ccc(C)cc1Oc1ccc(C#N)c(Cl)c1 [Example 33, 2-Chloro-4-(2-methoxy-5-methyl-phenoxy)-benzonitrile]	232
CSc1ccc(Oc2ccc(C#N)c(Cl)c2)c(C)c1 [Example 59, 2-Chloro-4-(2-methyl-4-methylsulfanyl-phenoxy)-benzonitrile]	268
CC(C)(CO)CNC(=O)c1ccccc1Oc1ccc(C#N)c(C(F)(F)F)c1 [Example 114, 2-(4-Cyano-3-trifluoromethyl-phenoxy)-N-(3-hydroxy-2,2-dimethyl-propyl)-benzamide]	402
CCN(CC)C(=O)c1ccccc1Oc1ccc(C#N)cc1Cl [Example 18, 2-(2-Chloro-4-cyano-phenoxy)-N,N-diethyl-benzamide]	402
N#Cc1ccc(Oc2cccc3ccccc23)c(Cl)c1 [Example 72, 3-Chloro-4-(naphthalen-1-yloxy)-benzonitrile]	478
N#Cc1ccc(Oc2ccccc2[N+](=O)[O-])c(Cl)c1 [Example 2, 3-Chloro-4-(2-nitro-phenoxy)-benzonitrile]	472
Cc1ccc(Oc2ccc(C#N)cc2Cl)c(C)c1 [Example 21, 3-Chloro-4-(2,4-dimethyl-phenoxy)-benzonitrile]	263
Cc1ccc(Oc2ccc(C#N)c(Cl)c2)c(C(C)(C)C)c1 [Example 73, 4-(2-tert-Butyl-4-methyl-phenoxy)-2-chloro-benzonitrile]	253
C[C@H](O)CNC(=O)c1ccccc1Oc1ccc(C#N)c(C(F)(F)F)c1 [Example 113, 2-(4-Cyano-3-trifluoromethyl-phenoxy)-N-(2-hydroxy-propyl)-benzamide]	353
N#Cc1ccc(Oc2ccccc2OCc2ccccc2)cc1C(F)(F)F [Example 92, 4-(2-Benzyloxy-phenoxy)-2-trifluoromethyl-benzonitrile]	361
CCOC(=O)c1ccc(Oc2ccc(C#N)c(Cl)c2)c(OC)c1 [Example 55, 4-(3-Chloro-4-cyano-phenoxy)-3-methoxy-benzoic acid ethyl ester]	300
CCOc1ccccc1Oc1ccc(C#N)cc1Cl [Example 71, 3-Chloro-4-(2-ethoxy-phenoxy)-benzonitrile]	299
CCSc1ccccc1Oc1ccc(C#N)cc1Cl [Example 1, 3-Chloro-4-(2-ethylsulfanyl-phenoxy)-benzonitrile]	281
Cc1ccc(Oc2ccc(C#N)c(Cl)c2)c(Cc2ccccc2)c1 [Example 62, 4-(2-Benzyl-4-methyl-phenoxy)-2-chloro-benzonitrile]	326
Cc1ccc(-c2ccc(Oc3ccc(C#N)c(Cl)c3)c(C)c2)cc1 [Example 58, 2-Chloro-4-(3,4′-dimethyl-biphenyl-4-yloxy)-benzonitrile]	436
CC(=O)c1ccc(Oc2ccc(C#N)c(C(F)(F)F)c2)cc1 [Example 75, 4-(4-Acetyl-phenoxy)-2-trifluoromethyl-benzonitrile]	443
Cc1cccc(Oc2ccc(C#N)cc2Cl)c1 [Example 28, 3-Chloro-4-m-tolyloxy-benzonitrile]	412
N#Cc1ccc(Oc2ccccc2[N+](=O)[O-])cc1C(F)(F)F [Example 77, 4-(2-Nitro-phenoxy)-2-trifluoromethyl-benzonitrile]	458
Cc1ccc(C)c(Oc2ccc(C#N)cc2Cl)c1 [Example 9, 3-Chloro-4-(2,5-dimethyl-phenoxy)-benzonitrile]	356
Cc1ccc(C(C)C)c(Oc2ccc(C#N)cc2Cl)c1 [Example 14, 3-Chloro-4-(2-isopropyl-5-methyl-phenoxy)-benzonitrile]	375
COc1ccc(C)cc1Oc1ccc(C#N)cc1Cl [Example 22, 3-Chloro-4-(2-methoxy-5-methyl-phenoxy)-benzonitrile]	491
CCN(CC)Cc1c(C)ccc(C)c1Oc1ccc(C#N)c(C(F)(F)F)c1 [Example 89, 4-(2-Diethylaminomethyl-3,6-dimethyl-phenoxy)-2-trifluoromethyl-benzonitrile]	255
N#Cc1ccccc1Oc1ccc(C#N)c(C(F)(F)F)c1 [Example 112, 4-(2-Cyano-phenoxy)-2-trifluoromethyl-benzonitrile]	315
C=CCc1cccc(C)c1Oc1ccc(C#N)cc1Cl [Example 11, 4-(2-Allyl-6-methyl-phenoxy)-3-chloro-benzonitrile]	242
COc1cc(C(C)=O)ccc1Oc1ccc(C#N)c(C(F)(F)F)c1 [Example 74, 4-(4-Acetyl-2-methoxy-phenoxy)-2-trifluoromethyl-benzonitrile]	1480
